In the supplement of paper PMC5752671:

Legend:
Assay in all cases: area under dose-response curve (cell viability) (AUC (arbitrary, % viability x log concentration)); higher = less sensitive (more viable)
Details in all cases: 4 days
KASUMI1 = system: KASUMI1
How it was run: (§1)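 The value given is the area under a fitted sigmoid dose-response curve. That sigmoid had four parameters and was fitted to duplicate-averaged data from fourteen leukemia cell lines grown on extracellular-matrix-coated 384-well plates. One day after plating, drugs were robotically dosed in duplicate at eight concentrations spanning 4–5 logs between 10^–12 and 10^–4 M, chosen per drug, and viability was read with CellTiter-Glo 4 days later.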

PL-21 = system: PL-21
How it was run: as §1

OCI-AML3 = system: OCI-AML3
How it was run: as §1

KG1 = system: KG1
How it was run: as §1

U937 = system: U937
How it was run: as §1

NB4 = system: NB4
How it was run: as §1

SKM1 = system: SKM1
How it was run: as §1

MOLM/16 = system: MOLM/16
How it was run: as §1

EOL-1 = system: EOL-1
How it was run: as §1

MV4.11 = system: MV4.11
How it was run: as §1

Structure (SMILES)	area under dose-response curve (KASUMI1)	area under dose-response curve (PL-21)	area under dose-response curve (OCI-AML3)	area under dose-response curve (KG1)	area under dose-response curve (U937)	area under dose-response curve (NB4)	area under dose-response curve (SKM1)	area under dose-response curve (MOLM/16)	area under dose-response curve (EOL-1)	area under dose-response curve (MV4.11)
CC(=O)c1c(C)c2cnc(Nc3ccc(N4CCNCC4)cn3)nc2n(C2CCCC2)c1=O	452	404	433	534	393	462	438	511	417	423
CC(C)CC(=O)Nc1n[nH]c2c1CN(C(=O)C1CCN(C)CC1)C2(C)C	463	452	281	556	283	258	336	268	353	352
CN1CC[C@@H](NC(=O)Nc2ccc(C#N)cc2)C[C@@H]1c1nc2ccccc2[nH]1	664	563	588	666	608	607	624	587	642	584
COc1ccc(-c2cc3c(C)nc(N)nc3n([C@H]3CC[C@H](OCCO)CC3)c2=O)cn1	403	403	402	475	397	458	399	378	385	387
COc1ccc2c(c1)CCC1C2CCC2(C)C(NCCCCCCN3C(=O)C=CC3=O)CCC12 (stereo not given)	509	559	547	522	589	645	608	632	523	644
Cc1cnc(Nc2ccc(OCCN3CCCC3)cc2)nc1Nc1cccc(S(=O)(=O)NC(C)(C)C)c1	544	516	540	532	562	563	518	392	389	392
NC(=O)c1ccc(-c2nc(-c3ccccn3)c(-c3ccc4c(c3)OCO4)[nH]2)cc1	822	629	712	800	695	600	722	653	600	665
O=C(NC[C@H](O)CO)c1ccncc1Nc1ccc(I)cc1F	323	325	150	373	536	355	194	402	347	432
O=C(NOC[C@H](O)CO)c1ccc(F)c(F)c1Nc1ccc(I)cc1F	299	218	109	355	505	309	83.9	350	297	344
O=C1NC(=O)/C(=C\c2ccc3nccnc3c2)S1	642	612	647	666	648	605	637	618	679	665
O=C1NC(=O)c2c1c1c3ccccc3n3c1c1c2c2ccccc2n1[C@H]1CC[C@@H]3O1	639	625	649	654	679	605	656	577	522	532
OCCn1cc(-c2cnc3nnn(Cc4ccc5ncccc5c4)c3n2)cn1	638	559	552	664	604	567	616	592	616	557
Nc1ncnc2c1c(I)cn2[C@@H]1O[C@H](CO)[C@@H](O)[C@H]1O [5-Iodotubercidin]	461	497	571	422	501	516	559	403	470	313
CC1(C)CCC(c2ccc(Cl)cc2)=C(CN2CCN(c3ccc(C(=O)NS(=O)(=O)c4ccc(N[C@H](CCN5CCOCC5)CSc5ccccc5)c(S(=O)(=O)C(F)(F)F)c4)cc3)CC2)C1 [ABT-263]	490	630	643	528	620	642	626	540	495	526
Cl[TeH]1(Cl)(Cl)OCCO1.N [AS101]	691	543	571	605	584	542	605	561	626	582
O=C(NC1CCNCC1)c1n[nH]cc1NC(=O)c1c(Cl)cccc1Cl [AT-7519]	519	431	460	570	414	488	415	514	437	445
